Entries after “also recorded” stand apart in the source; their conditions may differ. Ends that are not written are not given here.
Experiments:
Type in all cases: cell-based
[1] = test system: pituitary tissue (ACTH neurons) from human iPS cells (201B7 strain); assay: ACTH stimulation test using CRH; settings: CRH added at 5 μg/ml; pituitary tissue from human iPS cells (201B7)
Method: (§1) Human iPS cells (201B7 strain) were cultured under conditions (see column A.2) that were effective for simultaneous maturation of hypothalamus and pituitary. Pituitary tissue and hypothalamic tissue were observed on Day 60 of culture, and ACTH neurons were detected in pituitary tissue. In addition, the amount of ACTH secreted from pituitary tissue was increased by long-term culture (FIG. 19), and it was confirmed that the maturation of pituitary tissue had progressed with the lapse of culture time.
In order to evaluate the function of pituitary tissue obtained by culture under the conditions in (1), an ACTH stimulation test using CRH (right in FIG. 21) was performed. The test method was in accordance with the previously reported method (Ozone C et al., Functional anterior pituitary generated in self-organizing culture of human embryonic stem cells. Nat Commun. 2016 Jan. 14; 7: 10351.) (CRH was added at 5 μg/ml). […] In addition, it was confirmed, by analysis by the fluorescent antibody method, that ACTH positive cells were CRH-R1 positive (center in FIG. 21).

CRH-R1 = target: T1, CRH-R1 (Homo sapiens, UniProt P34998); assay: ACTH suppression test using a CRH-R1 inhibitor; settings: CRH-R1 inhibitor 10^−5 M added at the time of stimulation with CRH addition
T1 construct: it was confirmed, by analysis by the fluorescent antibody method, that ACTH positive cells were CRH-R1 positive; endogenous in cells; host or cells: pituitary tissue (ACTH-positive cells) differentiated from human iPS cells, 201B7 strain
T1 sequence (P34998 24-415): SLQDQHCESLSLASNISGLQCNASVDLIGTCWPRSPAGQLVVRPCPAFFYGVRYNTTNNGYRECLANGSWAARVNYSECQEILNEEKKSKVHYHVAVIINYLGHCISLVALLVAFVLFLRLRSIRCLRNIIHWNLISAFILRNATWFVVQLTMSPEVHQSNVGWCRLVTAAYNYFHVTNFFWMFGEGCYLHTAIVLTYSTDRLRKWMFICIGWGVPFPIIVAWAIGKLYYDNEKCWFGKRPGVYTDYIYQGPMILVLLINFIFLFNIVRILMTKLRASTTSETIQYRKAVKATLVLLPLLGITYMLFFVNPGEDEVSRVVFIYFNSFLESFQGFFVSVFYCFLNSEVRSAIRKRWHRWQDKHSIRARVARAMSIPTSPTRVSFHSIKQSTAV
Method: as §1
To further evaluate the function of pituitary tissue obtained by culture under the conditions in (1), an ACTH suppression test using a CRH-R1 inhibitor (Antalarmin, NBI2719) was performed (right in FIG. 23). A CRH-R1 inhibitor was added at a dose of 10^−5 M (test group) at the time of stimulation with CRH addition, and the amount of ACTH secreted was compared with that when no CRH-R1 inhibitor was added (control group). As a result of the test, the secretion of ACTH was suppressed by the CRH-R1 inhibitor (left and center in FIG. 23).

human ES cells (KhES-1) = assay: Differentiation induction of human ES cells by SFEBq method, analysed by fluorescent antibody method; settings: Day 30 of culture
Text: Next, it was examined whether the method can be applied also to human ES cells. Human ES cells (KhES-1) were subjected to maintenance culture by a conventional method on MEF and then used. To monitor differentiation induction into a hypothalamic tissue, KhES-1 wherein a Venus cDNA has been knocked-in into the gene of Rx which is a hypothalamic nerve marker was used. To differentiate human ES cells by Serum-Free Embryonic Body quick method (SFEBq method), human ES cells were dispersed to single cells using an enzyme by the method of Nakano et al. (Cell Stem Cell. 2012 Jun. 14; 10 (6): 771-85), and reaggregated using a low cell adhesive V-bottom 96-well plate (Sumitomo Bakelite Co., Ltd.). Ten thousand (10,000) cells were seeded per well and cultured in a gfCDM differentiation medium at 37° C. under 5% CO2. With the day of seeding defined as Day 0 of differentiation culture, 20 μM Y-27632 (ROCK inhibitor: cell death suppressor at the time of dispersion: Watanabe et al. (Nat Biotechnol. 2007 June; 25 (6): 681-6. Epub 2007 May 27.)) was added from Day 0 to Day 3, and, on and after Day 3 of culture, a half of the medium was exchanged with a differentiation medium free from Y-27632 at a frequency of once every 3 days. Based on the thought that no aggregate was formed due to nutritional deficiency, a small amount of a serum alternative KSR was added to the gfCDM to verify the effect. Specifically, the SFEBq method was performed by mixing 2%, 5%, 10%, and 20% KSR in the gfCDM medium. On and after Day 18, the oxygen partial pressure during culture was set to 40%. The differentiation of the tissue was analyzed by a fluorescent antibody method. Based on the thought that the positional shift to the telencephalon was caused by various growth factors included in KSR, the addition of a bone morphogenetic protein signal transduction pathway activating substance was decided. Specifically, differentiation induction was attempted under the following conditions. […]

[2] = test system: AVP neurons induced from human ES cells (KhES-1); assay: KCl stimulation test of induced AVP neurons (AVP hormone by RIA method); settings: isotonic solution containing 0.1% potassium chloride for 30 minutes; cells on Day 180 of culture
Text: As a result of continuing suspension culture under the dorsal hypothalamus induction conditions, the expression of Otp and Brn2 (generally, Otp and Brn2 positive hypothalamus is thought to be in the precursor state of AVP neurons) was confirmed on Day 60 of culture (FIG. 6), and a small number of AVP-positive cells were observed on Day 103 of culture (FIG. 7). In order to improve the induction efficiency, the incorporation of dissociation culture, which is considered to be advantageous in neurogenesis, was decided. Specifically, differentiation induction was attempted under the following conditions. Cell aggregates were dispersed, and cells were seeded at 2×10^4 to 40×10^4 cells/cm^2 on glass plates coated with Laminin, Poly-D-Lysine and Matrigel, respectively, and subjected to plane culture in media obtained by adding NT3, BDNF, CNTF, and FBS, respectively, to a DFNB medium. Medium exchange was carried out at a frequency of once every 3 days.
As a result of differentiation induction under the above conditions, the appearance of AVP neurons was confirmed on Day 150 of culture (FIG. 8). […] First, the medium after used for cell culture for 3 days was recovered, and the AVP hormone in the medium was measured by RIA method. […]

[3] = SAG 0.5 μM with BMP signal activating substance 1.5 to 2.0 nM from Day 6

## CRH: corticotropin releasing hormone, added at 5 μg/ml in the ACTH stimulation test (SEEPPISLDLTFHLLREVLEMARAEQLAQQAHSNRKLMEII; ends and bridges not checked; UniProt P06850 154-194, looked up)
[1]
  ACTH secretion in response to CRH: ACTH was secreted in response to CRH

## CCCCN(CC)c1nc(C)nc2c1c(C)c(C)n2-c1c(C)cc(C)cc1C [Antalarmin]
CRH-R1
  amount of ACTH secreted vs control group without CRH-R1 inhibitor: suppressed

## CN[C@H]1CC[C@H](N(Cc2cccc(-c3ccncc3)c2)C(=O)c2sc3ccccc3c2Cl)CC1 [SAG]
Human ES cells (KhES-1); [3]
  differentiation efficiency of hypothalamic precursor cells: exceeded 80%
  marker expression of cell aggregates: co-positive for Rx and Pax6 and Chx10 negative

## [Cl-].[K+] [potassium chloride]
[2]
  response of AVP neurons (AVP hormone secretion) to stimulation: responded well

B1: BMP4: bone morphogenetic protein signal transduction pathway activating substance; a known cytokine (protein, UniProt P12644 293-408, looked up)
Bone morphogenetic protein 4: SPKHHSQRARKKNKNCRRHSLYVDFSDVGWNDWIVAPPGYQAFYCHGDCPFPLADHLNSTNHAIVQTLVNSVNSSIPKACCVPTELSAISMLYLDEYDKVVLKNYQEMVVEGCGCR
Human ES cells (KhES-1); about 3.0 nM from Day 6, KSR-containing gfCDM
  marker expression: Rx as a hypothalamic marker and Pax6 as a dorsal marker became co-positive; also recorded: the retinal marker Chx10 also became positive

Reference: patent US12378518B2, “Differentiation induction from human pluripotent stem cells into hypothalamic neurons” (National University Corporation Nagoya University, priority 2016, dated 2025)
